Laboratory results published in patent US20100119479A1, “THERAPEUTIC ANTIVIRAL PEPTIDES” (INTERMUNE, INC., priority 2008, published 2010).

Key:
[1] = system: HCV sub-genomic replicon, GS4.3 (HuH-7 hepatoma cells); experiment: Quantitation by ELISA of NPTII in the HCV sub-genomic replicon, GS4.3; format: cell-based; conditions: Hepatitis C virus, GS4.3 replicon cells, 72 h incubation
Outline: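 HuH-7 cells carrying the 1377/NS3-3′ subgenomic replicon were seeded 24 h ahead, then treated in G418-free medium with 3-fold dilutions from 10 μM (1% DMSO, duplicates) for 72 h at 37 °C, 5% CO2. NPTII in lysates was measured by ELISA (TMB, 450 nm). EC50 came from a 4-parameter fit of percent DMSO-control signal.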

[2] = target: T1, full-length NS3/NS4A-2 (HCV NS3 protease) (Hepatitis C virus genotype 1b, UniProt Q9WMX2); experiment: NS3 Inhibition Assay (NS3-NS4 protease assay, RETS1 substrate); format: biochemical; conditions: NS3/NS4A-2 protease
T1 construct: Recombinant E. coli or Baculovirus full-length NS3; host or cells: E. coli or baculovirus (BV) expression
Outline: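 Full-length NS3 (E. coli 2 nM or baculovirus 3 nM) precomplexed with excess NS4A-2, preincubated 10 min at room temperature with compound (top 50 μM). Then 2 μM RETS1 FRET substrate added, fluorescence (ex 335/em 495 nm) read kinetically for 30 min. IC50 by 4-parameter fit, converted to Ki using Km 2.03 μM (E. coli) or 1.74 μM (BV).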

T1 sequence (Q9WMX2 1027-1657): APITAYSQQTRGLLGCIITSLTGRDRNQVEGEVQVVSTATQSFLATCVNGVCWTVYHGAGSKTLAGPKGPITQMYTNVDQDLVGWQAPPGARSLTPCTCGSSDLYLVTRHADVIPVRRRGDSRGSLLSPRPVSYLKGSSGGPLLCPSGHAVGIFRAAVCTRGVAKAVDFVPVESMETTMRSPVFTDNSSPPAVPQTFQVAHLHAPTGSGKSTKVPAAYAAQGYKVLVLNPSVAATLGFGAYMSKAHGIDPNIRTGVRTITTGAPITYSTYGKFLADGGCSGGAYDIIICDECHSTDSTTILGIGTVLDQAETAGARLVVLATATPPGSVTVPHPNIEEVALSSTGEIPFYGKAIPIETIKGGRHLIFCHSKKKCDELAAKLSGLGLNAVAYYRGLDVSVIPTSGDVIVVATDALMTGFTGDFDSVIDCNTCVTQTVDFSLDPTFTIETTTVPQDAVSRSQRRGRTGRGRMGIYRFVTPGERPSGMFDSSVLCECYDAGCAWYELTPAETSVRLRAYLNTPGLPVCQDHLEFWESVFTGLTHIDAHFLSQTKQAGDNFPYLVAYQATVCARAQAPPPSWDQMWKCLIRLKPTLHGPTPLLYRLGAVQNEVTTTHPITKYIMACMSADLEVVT
T1 sequence (Q9WMX2 1658-1711): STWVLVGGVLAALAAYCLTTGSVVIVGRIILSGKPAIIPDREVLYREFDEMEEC

Structure (SMILES) | EC50 [1] | IC50 [2]
CC(C)(C)[C@H](Nc1cc(F)cc(C(F)(F)F)c1)C(=O)N1C[C@H](OC(=O)N2Cc3cccc(Cl)c3C2)C[C@H]1C(=O)N[C@]1(C(=O)NS(=O)(=O)C2CC2)C[C@H]1C1CC1 [Compound 292] | < 0.1 µM | < 0.1 µM
CC[C@@H]1C[C@]1(NC(=O)[C@@H]1C[C@@H](OC(=O)N2Cc3cccc(F)c3C2)CN1C(=O)[C@@H](Nc1ccc(C(=O)O)cc1)C(C)(C)C)C(=O)NS(=O)(=O)C1CC1 [Compound 3] | > 1 µM | < 0.1 µM
CC[C@@H]1C[C@]1(NC(=O)[C@@H]1C[C@@H](OC(=O)N2Cc3cccc(Cl)c3C2)CN1C(=O)[C@@H](Nc1cccc(C(F)(F)F)c1)C(C)(C)C)C(=O)NS(=O)(=O)C1(C)CC1 [Compound 282] | < 0.1 µM | < 0.1 µM
CC[C@@H]1C[C@]1(NC(=O)[C@@H]1C[C@@H](Oc2cc(-c3nc(C(C)C)cs3)nc3c(C)c(OC)ccc23)CN1C(=O)[C@@H](Nc1cc(F)cc(C(F)(F)F)c1)C(C)(C)C)C(=O)NS(=O)(=O)C1CC1 [Compound 354] | < 0.1 µM | < 0.1 µM
CC[C@@H]1C[C@]1(NC(=O)[C@@H]1C[C@@H](Oc2cc(-c3nc(C(C)C)cs3)nc3c(C)c(OC)ccc23)CN1C(=O)[C@@H](Nc1ccc(F)c(C(F)(F)F)c1)C(C)(C)C)C(=O)NS(=O)(=O)C1(C)CC1 [Compound 301] | < 0.1 µM | < 0.1 µM
C=C[C@@H]1C[C@]1(NC(=O)[C@@H]1C[C@@H](Oc2nccc3ccccc23)CN1C(=O)[C@@H](Nc1ccc(F)c(C(F)(F)F)c1)C(C)(C)C)C(=O)NS(=O)(=O)C1CC1 [Compound 6] | < 0.1 µM | < 0.1 µM
C=C[C@@H]1C[C@]1(NC(=O)[C@@H]1C[C@@H](Oc2cc(-c3nc(C(C)C)cs3)nc3c(C)c(OC)ccc23)CN1C(=O)[C@@H](Nc1ccccc1[N+](=O)[O-])C(C)(C)C)C(=O)NS(=O)(=O)C1CC1 [Compound 351] | < 0.1 µM | 0.1 to 1 µM
C=C[C@@H]1C[C@]1(NC(=O)[C@@H]1C[C@@H](Oc2cc(-c3nc(C(C)C)cs3)nc3c(C)c(OC)ccc23)CN1C(=O)[C@@H](Nc1cc(F)cc(C(F)(F)F)c1)C(C)(C)C)C(=O)NS(=O)(=O)N(C)C [Compound 307] | < 0.1 µM | < 0.1 µM
CC(C)(C)[C@H](Nc1cccc(OC(F)(F)F)c1)C(=O)N1C[C@H](OC(=O)N2Cc3cccc(Cl)c3C2)C[C@H]1C(=O)N[C@]1(C(=O)NS(=O)(=O)C2(C)CC2)C[C@H]1C1CC1 [Compound 304] | < 0.1 µM | < 0.1 µM
CC[C@@H]1C[C@]1(NC(=O)[C@@H]1C[C@@H](OC(=O)N2Cc3cccc(Cl)c3C2)CN1C(=O)[C@@H](Nc1cc(F)cc(C(F)(F)F)c1)C(C)(C)C)C(=O)NS(=O)(=O)C1(C)CC1 [Compound 283] | < 0.1 µM | < 0.1 µM
CC[C@@H]1C[C@]1(NC(=O)[C@@H]1C[C@@H](OC(=O)N2Cc3cccc(F)c3C2)CN1C(=O)[C@@H](Nc1ccc(C(=O)N2CCOCC2)cc1)C(C)(C)C)C(=O)NS(=O)(=O)C1CC1 [Compound 11] | > 1 µM | < 0.1 µM
CC[C@@H]1C[C@]1(NC(=O)[C@@H]1C[C@@H](OC(=O)N2Cc3cccc(F)c3C2)CN1C(=O)[C@@H](Nc1cccc(C(=O)N2CCNCC2)c1)C(C)(C)C)C(=O)NS(=O)(=O)C1CC1 [Compound 9] | > 1 µM | < 0.1 µM
C=C[C@@H]1C[C@]1(NC(=O)[C@@H]1C[C@@H](Oc2nccc3ccccc23)CN1C(=O)[C@@H](Nc1cc(F)cc(C(F)(F)F)c1)C(C)(C)C)C(=O)NS(=O)(=O)C1CC1 [Compound 7] | < 0.1 µM | < 0.1 µM
CC[C@@H]1C[C@]1(NC(=O)[C@@H]1C[C@@H](Oc2cc(-c3nc(C(C)C)cs3)nc3c(C)c(OC)ccc23)CN1C(=O)[C@@H](Nc1ccc(C(F)(F)F)cc1)C(C)(C)C)C(=O)NS(=O)(=O)C1(C)CC1 [Compound 299] | < 0.1 µM | < 0.1 µM
CC[C@@H]1C[C@]1(NC(=O)[C@@H]1C[C@@H](OC(=O)N2Cc3cccc(F)c3C2)CN1C(=O)[C@@H](Nc1cccc(OC(F)(F)F)c1)C(C)(C)C)C(=O)NS(=O)(=O)C1(C)CC1 [Compound 289] | < 0.1 µM | < 0.1 µM
CC[C@@H]1C[C@]1(NC(=O)[C@@H]1CC(Oc2cc(-c3nc(C(C)C)cs3)nc3c(C)c(OC)ccc23)CN1C(=O)[C@@H](Nc1cccc(C(F)(F)F)c1)C(C)(C)C)C(=O)NS(=O)(=O)C1CC1 (stereo partly drawn) [Compound 335] | < 0.1 µM | < 0.1 µM
CC(C)(C)[C@H](Nc1ccc(F)c(C(F)(F)F)c1)C(=O)N1C[C@H](OC(=O)N2Cc3cccc(Cl)c3C2)C[C@H]1C(=O)N[C@]1(C(=O)NS(=O)(=O)C2CC2)C[C@H]1C1CC1 [Compound 294] | < 0.1 µM | < 0.1 µM
CC[C@@H]1C[C@]1(NC(=O)[C@@H]1C[C@@H](OC(=O)N2Cc3ccc(NC(=O)COC)cc3C2)CN1C(=O)[C@@H](Nc1cc(F)cc(C(F)(F)F)c1)C(C)(C)C)C(=O)NS(=O)(=O)C1CC1 [Compound 19] | < 0.1 µM | < 0.1 µM
